Patent US20260314597A1, “A NOVEL APPROACH TO INTERFERE IN THE PHENYLPROPANOID BIOSYNTHETIC PATHWAY TO REDUCE PINK-RIB DISORDER IN FRESH LETTUCE” (University of Florida Research Foundation, Inc., priority 2022, published 2026)
Entries after “also recorded” stand apart in the source; their conditions may differ. Like-named read-outs stand apart in the source and are kept apart here. Blank lines part the entries; values can stand above or below the compound they belong to.

Legend:
PPO [1] = conditions: role: inhibitor; L-cysteine 1 to 5 mM; cited from earlier work
fresh-cut artichoke = conditions: L-cysteine 0.5% or 41.3 mM; cited from earlier work
PPO [2] = conditions: role: inhibitor; L-cysteine 1% or 82.5 mM; after 2 d and up to 8 d at 1° C.; cited from earlier work
polyphenol oxidase (PPO) = assay: PPO activity in treated wounded midribs; assay type: biochemical, lettuce (iceberg, Romaine); conditions: 5 d at 5° C.; for PPO activity: L-cysteine 4.1 mM or melatonin 4.3 mM; for effect on PPO activity: iceberg and Romaine
Excerpt: (§1) In all tests, experimental setup began immediately upon arrival to the laboratory. 90 outer leaves were randomly selected from 18 to 22 lettuce heads that met commercial and damage-free quality standards. A midrib segment (12.5 cm) was excised from the center of each leaf and excess leaf blade tissue was trimmed parallel to the midrib. This procedure was adapted from the wounding procedure of Cantwell (2016). Each midrib was then partially sliced transversally at 1.3-cm increments along the midrib. Midribs (n=15) were immediately immersed for 30 s in one of five treatment solutions: deionized water (wounded control), L-cysteine (4.1 mM), naringenin (1.8 mM) with 20% dimethyl sulfoxide (DMSO), serotonin (2.8 or 5.7 mM) or melatonin (4.3 mM) with 0.50% DMSO. Immediately following immersion, the midribs for each treatment were patted dry using paper towels and placed (n=5) in a breathable, high-density polyethylene bag (n=3) (Narrow Profile Produce Bags [14×18 inches] Model No. S-19156, Uline®, Pleasant Prairie, WI). Unwounded control midribs were stored in the same manner. To allow for direct comparison, each cut site on each midrib was assigned an initial discoloration value on day 1 based on the coloration of the rib. Samples were stored at 5° C. with 95-98% relative humidity (RH) for 5 d, simulating commercial storage.
PPO activity was prepared and determined as reported by Teng et al. (2019) with slight modifications. Lettuce samples (300 mg) were homogenized in 150% (w/v) chilled phosphate buffer (pH 6.2, 0.05 M). Following chilling of test tubes with samples in an ice bath, samples were centrifuged at 9660×g for 10 min at 4° C. The increase in absorbance was measured every 3 s for 1 min. The slope of the linear portion of the time curve was calculated. One unit (U) of PPO activity was defined as an increase in OD410 of 0.1 unit within 1 min.
The imaging data (a* value), enzyme activity (PAL and PPO), and metabolite (chlorogenic acid) results were expressed as mean±standard error and analyzed by lettuce type (iceberg or Romaine). For imaging data, an unpaired t-test was used to identify differences within a treatment throughout storage and among treatment groups at each time point. Treatment groups were defined as wounded, unwounded, L-cysteine, and melatonin. […] Analyses of variance were performed for PAL, PPO, and metabolite analyses using SAS software (version 9.4; SAS Institute, Cary, NC) to identify differences among treatment groups. Differences among treatments groups were separated by Tukey's Honest Significant Difference (HSD) test with a confidence level of 95%. The correlation between visual rating and a* value was evaluated for significance via an F-test, from which the P-value of the correlation was calculated.

litchi fruit [3] = conditions: cited from earlier work
PAL [4] = conditions: melatonin; 25 d storage at 4° C.; cited from earlier work
PPO [5] = conditions: melatonin 0.4 mM; litchi pericarp; up to 6 d; cited from earlier work
pear flesh = conditions: melatonin 0.1 mM, cited from earlier work
PAL [6] = conditions: melatonin 0.1 mM; after 2 d at 4° C.; cited from earlier work
[7] = test system: metabolites in wounded Romaine lettuce midrib; assay: Untargeted LC-MS/MS metabolomics of melatonin-treated wounded midribs (Test 3); assay type: in vivo, lettuce (Romaine 'Manatee')
Description: For Test 1, the evaluations for pink rib development, protein quantification, and enzyme activity were conducted with Romaine and iceberg lettuce heads (36 heads per type; cultivars unknown) purchased (February 2020) upon arrival at a local grocery store in Gainesville, FL, and immediately transported to the Postharvest Horticulture Laboratory at the University of Florida in Gainesville, FL. For Test 2, metabolite extraction and detection were conducted with commercially grown, harvested, and cooled Romaine (‘Tall Guzmaine’) and iceberg (‘Chosen’) lettuce (December 2020) grown in Belle Glade, FL. For Test 3, untargeted metabolomics was performed using commercially grown, harvested, and cooled Romaine (‘Manatee’) lettuce grown in Belle Glade, FL (April 2021). To keep the lettuce head samples cool while preventing freeze damage during transport, a 3- to 6-inch layer of crushed ice was placed on the bottom of each 114-L cooler. A piece of waxed, corrugated fiberboard was placed on top of the ice prior to packing with the lettuce samples for transport the same day to the Postharvest Horticulture Laboratory in Gainesville (approximately 4 h distant).
as §1
Unwounded, wounded, and compound-treated wounded midrib samples were collected for untargeted metabolite analysis to identify global metabolite changes in response to melatonin application and targeted metabolite analysis to quantify chlorogenic acid a major caffeoyl compound in lettuce. For both targeted and untargeted metabolite analyses, fresh samples (500-800 mg) of the midribs from each treatment (n=3) were weighed, then immediately frozen in liquid nitrogen and stored at −80° C. for subsequent metabolite extraction. Frozen samples were extracted with a 50% methanol extraction solution containing a 1:1 (v:v) of methanol with deionized water. Samples were completely submerged in a 1:1.5 (w:v) of the sample weight (mg) to extraction solution volume (μL), respectively, and incubated at 65° C. for 90 min and then centrifuged at 9660×g for 10 min (MC-12 High Speed Micro Centrifuge, Benchmark Scientific, Edison, NJ). The supernatant was transferred to a new tube and filtered with a 0.45 μm filter (Choice, Thermo Scientific, Wilmington, DE). An aliquot of 400 μL was vacuum-dried.
For untargeted metabolite analysis, vacuum-dried samples were resuspended into 100 μL of 50% methanol solution containing an internal standard umbelliferon (18 μg mL^−1) and vortexed for 1 min. After centrifugation at 13,000×g for 15 min, the solutions were transferred to sample inserts and analyzed. […]

litchi fruit [8] = conditions: melatonin 0.4 mM, cited from earlier work

- PPO activity (polyphenol oxidase (PPO); Romaine, wounded control 5.1): 6.4 U
- PPO activity (polyphenol oxidase (PPO); iceberg, wounded control 1.7): 2.6 U
Structure (SMILES): N[C@@H](CS)C(=O)O [L-cysteine]
- PPO activity (PPO [1]): linear decline in PPO activity
- effect on browning of artichoke (fresh-cut artichoke): no effect; also recorded: developed browning or became yellow
- PPO activity (PPO [2]): significantly declined
- effect on PPO activity (polyphenol oxidase (PPO)): no significant differences in PPO activity; also recorded: no effect on PPO activity; also recorded: neither PPO activity nor pink rib expression were reduced

- PPO activity (polyphenol oxidase (PPO); Romaine, wounded control 5.1): 6.2 U
- PPO activity (polyphenol oxidase (PPO); iceberg, wounded control 1.7): 2.6 U
Structure (SMILES): COc1ccc2[nH]cc(CCNC(C)=O)c2c1 [melatonin]
- increase in total phenolics (litchi fruit [3]; melatonin 0.4 mM, litchi pericarp, up to 6 d): approximately 40%
- activity of several antioxidants (litchi fruit [3]; melatonin 0.4 mM, litchi): increased
- free radical development (litchi fruit [3]; melatonin 0.4 mM, litchi): reduced
- key enzymes in the melatonin biosynthesis pathway (litchi fruit [3]; melatonin, litchi): Upregulation
- PAL activity (PAL [4]): increased
- PPO activity (PPO [5]): significant decrease
- total phenolic content (pear flesh; after 4 d at 4° C.): higher
- inhibition of browning (pear flesh; pear flesh, 8 d at 4° C.): no inhibition of browning
- PAL activity (PAL [6]): higher
- effect on PPO activity (polyphenol oxidase (PPO)): no significant differences in PPO activity; also recorded: no effect on PPO activity; also recorded: neither enzyme activity (PAL or PPO) nor chlorogenic acid concentration were impacted; also recorded: did not significantly affect PAL or PPO enzyme activities
- effect on wounding-related metabolite changes ([7]; Romaine, wounded midrib): reduces overall metabolite changes in wounded lettuce midrib; also recorded: substantially affected wounding-related metabolite changes
- chlorogenic acid abundance, melatonin-treated vs wounded ([7]; Romaine, LC/MS): remained similar
- number of wounding-diminished compounds increased with melatonin ([7]; of 25 diminished compounds): 16 compounds
- number of wounding-diminished compounds remaining decreased ([7]; of 25 diminished compounds, vs untreated wounded samples): 9 compounds
- number of wounding-accumulated compounds reduced in abundance upon melatonin ([7]; of 68 accumulated compounds): 64 compounds
- number of wounding-accumulated compounds that maintained high abundancy ([7]; of 68 accumulated compounds): four
- delay of pericarp browning (litchi fruit [8]; 25° C.): 4 days
- discoloration of litchi pericarp (litchi fruit [8]; up to 6 d): significant decrease
